Test results published in patent US20030073731A1, “Compositions and methods of the use thereof achiral analogues of CC-1065 and the duocarmycins” (priority 2000, published 2003).
Like-named read-outs stand apart in the source and are kept apart here.

Assays:
plasmid pBR322 DNA = test: Taq polymerase stop assay; type: biochemical
OVCAR-5 = type: cell-based, human
OVCAR-8 [1] = system: OVCAR-8
MDA-MB-435 [2] = system: MDA-MB-435
[3] = system: K562 human chronic myeloid leukemia cells; test: cells; type: cell-based
Experimental: The cytotoxicity was determined using a MTT tetrazolium dye assay (42). […] The incubation was terminated by centrifugation (5 minutes, 300 g) and the cells were washed once with drug-free medium. Following the appropriate drug treatment, the cells were transferred to 96-well microtitre plates, 10^4 cells per well, 8 wells per sample. Plates were then kept in the dark at 37° C. in a humidified atmosphere containing 5% CO2. […] Following incubation of the plates for 4 days (to allow control cells to increase in number by 10 fold) 20 μL of a 5 mg/mL solution of MTT in phosphate buffered saline was added to each well and the plates further incubated for 5 hours. The plates were then centrifuged for 5 minutes at 300 g and the bulk of the medium pipetted from the cell pellet leaving 10-20 μL per well. 200 μL DMSO was added to each well and the samples agitated to ensure complete mixing. The optical density was the read at a wavelength of 550 nm on a Titertek Multiscan ELISA plate reader, and the dose-response curve was constructed.

[4] = system: MCF-7 (human breast cancer cells); test: cells; type: cell-based
CCRF-CEM = test: cells; details: Homo sapiens
K-562 = test: cells; details: Homo sapiens
HOP-62 = test: cells; details: Homo sapiens
HOP-92 = test: cells; details: Homo sapiens
NCI-H23 = test: cells; details: Homo sapiens
SNB-75 = test: cells; details: Homo sapiens
SK-MEL-28 = test: cells; details: Homo sapiens
UACC-257 = test: cells; details: Homo sapiens
OVCAR-8 [5] = test: cells; details: Homo sapiens
TK-10 = test: cells; details: Homo sapiens
PC-3 = test: cells; details: Homo sapiens
MDA-MB-231/ATCC = test: cells; details: Homo sapiens
HS 578T = test: cells; details: Homo sapiens
MDA-MB-435 [6] = test: cells; details: Homo sapiens

## 4-(2-Chloroethyl)-3-[5-(5-benzofuran-2-carboxamido)indole-2-carboxamido]phenol [Compound 1]
Plasmid pBR322 DNA
  sequence selectivity compared with compound 27: stronger sequence selectivity than 27
OVCAR-5
  GI50: 2280 nM
  TGI: 5.80E-06 Molar
MOLT-4
  GI50: 1140 nM
NCI-H226
  GI50: 4090 nM
  TGI: 1.62E-05 Molar
HT29
  GI50: 2290 nM
  TGI: 1.115E-05 Molar
SNB-19
  GI50: 3530 nM
  TGI: 1.38E-05 Molar
LOX IMVI
  GI50: 2430 nM
  TGI: 6.93E-06 Molar
M14
  GI50: 1490 nM
  TGI: 3.19E-06 Molar
UACC-62
  GI50: 1970 nM
  TGI: 3.49E-06 Molar
OVCAR-8 [1]
  GI50: 1320 nM
  TGI: 3.28E-06 Molar
ACHN
  GI50: 1530 nM
  TGI: 5.55E-06 Molar
SN12C
  GI50: 3100 nM
  TGI: 9.41E-06 Molar
UO-31
  GI50: 3000 nM
  TGI: 6.38E-06 Molar
MDA-MB-435 [2]
  GI50: 1890 nM
  TGI: 3.75E-06 Molar
MDA-N
  GI50: 2280 nM
  TGI: 5.47E-06 Molar
BT-549
  GI50: 3600 nM
  TGI: 2.05E-05 Molar
Human H522 lung cancer
  IP+SC score: 18
  cell kill: significant cells kill was observed
Human H522 lung cancer; intraperitoneal fibers
  IP score: 8
Human H522 lung cancer; subcutaneous fibers
  SC score: 10

## COC(=O)c1[nH]c2c(O)cc(NC(=O)c3cc4cc(OC)c(OC)c(OC)c4[nH]3)c(CCCl)c2c1C(=O)OC [Compound 22, Dimethyl 4-(2-chloroethyl)-7-hydroxy-5-(5,6,7-trimethoxyindole-2-carboxamido)indole-2,3-dicarboxylate]
[3]; 1 hour exposure
  IC50: 310 ± 220 nM
[3]; 72 h, continuous exposure (3 days)
  IC50: 250 ± 96 nM
[4]; MCF7, MCF-7, 1 hour exposure
  IC50: 970 nM
[4]; MCF7, MCF-7, Continuous exposure
  IC50: 130 nM
CCRF-CEM
  GI50: 31.8 nM
CCRF-CEM; read-out: LC50
  CC50: > 50000 nM
K-562; K562
  GI50: 315 nM
K-562; K562, read-out: LC50
  CC50: > 50000 nM
HOP-62; HOP-62
  GI50: 91.4 nM
HOP-62; HOP-62, read-out: LC50
  CC50: 8510 nM
HOP-92; HOP-92
  GI50: 179 nM
HOP-92; HOP-92, read-out: LC50
  CC50: > 50000 nM
NCI-H23; NCI-H23
  GI50: 67.5 nM
NCI-H23; NCI-H23, read-out: LC50
  CC50: > 50000 nM
SNB-75; SNB-75
  GI50: 62.8 nM
SNB-75; SNB-75, read-out: LC50
  CC50: 711 nM
SK-MEL-28; SK-MEL-28
  GI50: 172 nM
SK-MEL-28; SK-MEL-28, read-out: LC50
  CC50: > 50000 nM
UACC-257; UACC-257
  GI50: 170 nM
UACC-257; UACC-257, read-out: LC50
  CC50: > 50000 nM
OVCAR-8 [5]; OVCAR-8
  GI50: 70.9 nM
OVCAR-8 [5]; OVCAR-8, read-out: LC50
  CC50: 1760 nM
TK-10; TK-10
  GI50: 272 nM
TK-10; TK-10, read-out: LC50
  CC50: > 50000 nM
PC-3; PC-3
  GI50: 61.7 nM
PC-3; PC-3, read-out: LC50
  CC50: 10500 nM
MDA-MB-231/ATCC; MDA-MB-231
  GI50: 171 nM
MDA-MB-231/ATCC; MDA-MB-231, read-out: LC50
  CC50: > 50000 nM
HS 578T
  GI50: 138 nM
HS 578T; read-out: LC50
  CC50: 946 nM
MDA-MB-435 [6]; MDA-MB-435
  GI50: 137 nM
MDA-MB-435 [6]; MDA-MB-435, read-out: LC50
  CC50: > 50000 nM
